Results on one compound are retold here after patent US10016366B2, “Method of preparing lyophilized powder for injection comprising aloe and Panax pseudo-ginseng” (priority 2013, dated 2018).

For assay [1], the system named is ovariectomized mice. The experiment in a line: Serum E2, LH and FSH of ovariectomized mice by ELISA. The format is in vivo, female ICR mice. The note with it: 1 mg/kg, one time per day, 14 days, M ± SD. The method, then:
(§1) 3.1 Healthy female ICR mice weighted 20±2 g were anaesthetized by ether and fixed in the abdomen. Bilateral ovaries of the mice were extirpated via back incision below the costal bone. The wounds were stitched and the mice were cultured according to conventional methods. After the wounds were cured, vaginal smear examination was performed, one time per day for five consecutive days, to ensure the ovaries were completely extirpated. The mice in the dioestrum (observations of vaginal smears under microscope found a lot of polynuclear leucocytes and few epithelial cells) in the five consecutive days were qualified mice. 48 mice were randomly divided into 6 groups with each group 8 mice, that is, a model group (be administered with equal volume of normal saline), a diethyl stilbestrol group (1 mg/kg), J01 groups (144 mg/kg, 288 mg/kg), J02 groups (180 mg/kg, 360 mg/kg). Another 6 mice with bilateral ovaries were selected as a control group (be administered with equal volume of normal saline). The mice were administered with corresponding drugs, one time per day, for 14 consecutive days. After one hour from the last injection, blood was sampled from the orbital venous plexus, and centrifuged for 10 min at 3000 rpm. The serum was separated and the E2, LH and FSH values thereof were measured using ELISA method. Thereafter, the abdominal cavity was cut open quickly and thymus, spleen, and uterus were separated and weighed to calculate the coefficients of the thymus, spleen, and uterus.
(§2) The mice were administered with corresponding drugs, 5 mL/kg, one time per day, for 14 consecutive days.
(§3) Viscera index: coefficients of the thymus, spleen, and uterus. Viscera index=organ weight/mice body weight*10. Serum index: E2 (estradiol), LH (luteinizing hormone), FSH (follicle stimulating hormone).
(§4) The difference between groups of the measured data is examined based on ANOVA T-TEST using SPSS10.0.
(In general: ELISA stands for enzyme-linked immunosorbent assay.)

Assay [2] has as its system ovariectomized mice. The experiment in a line: Viscera index (thymus, spleen, uterus coefficients) of ovariectomized mice. The format is in vivo, female ICR mice. Particulars: 1 mg/kg, one time per day, 14 days, M ± SD. The method, then: as §1, §2, §3, §4

With `CC/C(=C(/CC)c1ccc(O)cc1)c1ccc(O)cc1` [Diethylstilbestrol], in the assay with ovariectomized mice [1], the “E2 (Estrogen)” value is 113.81 ± 33.85 pg/mL, the “FSH (Follicle Stimulating Hormone)” value was 22.54 ± 6.97 ng/mL and the “LH (luteinizing hormone)” value turned out to be 31.33 ± 4.51 ng/mL. Moreover, in the assay on ovariectomized mice [2], the Spleen index was found to be 66.67 ± 16.93 mg/10 g, the Thymus index is 32.99 ± 8.11 mg/10 g and the Uterus index worked out at 62.67 ± 11.89 mg/10 g.
